# Experimental data: EP4684783A1, “COSMETIC COMPOSITION FOR PREVENTING, ALLEVIATING, OR AMELIORATING HAIR LOSS” (LG Chem, Ltd., priority 2023, dated 2025)
# “And” between values parts separate entries of the source, which are not always exact repeats. Identical values can stand only once. Like-named read-outs stand apart in the source and are kept apart here.
# Key:
# human hair follicles = experiment: Ratio of hair follicle telogen in DHT-treated cultured hair follicles (visual evaluation); conditions: for Telogen ratio (%): 6 days
# Description: (§1) The ratio of hair follicle telogen and the expression level of hair follicle cell proliferation-related factor proteins depending on whether 3-hydroxypropionic acid was applied or not were evaluated according to the following methods.
# (§2) The human hair follicles or scalp tissues provided for research purposes (IRB No. 4-2023-1052; Institutional Review Board, Severance Medical Center, Yonsei University College of Medicine) were washed several times with PBS to remove residual impurities, and randomly divided into each group. The hair follicles and scalp tissues were cultured in Williams' Medium E (Sigma) supplemented with 2 mM L-glutamine (Sigma-Aldrich), 10 µg/ml insulin (Sigma-Aldrich), 100 ng/ml hydrocortisone (Sigma-Aldrich), 0.1% fungizone (Gibco, USA), and 1% antibioticantimycotic (Gibco), and 1% […] (Gibco) at 37°C in 5% CO2.
# To induce the telogen in the anagen hair follicle tissue, the test composition was treated with 1 µM dihydrotestosterone (DHT). The medium was replaced every 3 days and cultured for 6 days. The ratio of hair follicle telogen was visually evaluated based on the ratio of hair follicles in which the telogen occurred for 6 days compared to day 0.
# hair follicle cells = experiment: Ki67 immunofluorescence staining of cultured scalp tissue (hair follicle cell proliferation); parameters: species or system human; conditions: for Ki67 positive cells (%): scalp tissue, 24 hours
# Description: as §1, §2
# After the scalp tissue was treated with the test composition for 24 hours, the obtained tissue was prepared into a frozen block, and frozen sectioned at a thickness of 5 µm using a Cryostat microtome (Leica Biosystems, Germany), and the tissue sections were attached onto Silane-coated slides. Then, in order to stain the tissue sections and photograph the cross sections, the OCT compound was removed, a primary antibody specifically binding to Ki67 (Anti-Ki67 antibody: ab15580; abcam) was attached, and a fluorescently labeled secondary antibody specifically binding to this primary antibody (Goat pAb to Rb IgG (H+L): a11012; Invitrogen) was attached. Finally, the tissues were fixed with a fixative containing blue fluorescent DAPI (VECTASHIELD® mounting medium with DAPI; Vector laboratories) that stains the cell nucleus, and then images were taken at 100x magnification using a fluorescence microscope (M2; Zeiss). The percentage of Ki67-expressing cells among the total cells labeled with DAPI was measured from the captured images, and a higher value means a higher number of Ki67-expressing cells.
# [1] = Cell viability (WST / CCK-8 absorbance at 450 nm); assay type: cell-based, Human; conditions: human, follicle dermal papilla cells, 24 hours
# Description: (§3) Human follicle dermal papilla cells (PromoCell GmbH) were cultured in human follicle dermal papilla cells growth medium(PromoCell GmbH) supplemented with fetal calf serum(FCS), bovine pituitary extract(BPE), basic fibroblast growth factor(bFGF), and insulin at 37°C and 5% CO2.
# (§4) […] WST substrate solution (high sensitivity water soluble tetrazolium salt, CCK-8, DOJINDO) was then added to the medium, and cultured at 37°C for 2 hours.
# (§5) During the culture, a […] formazan was produced by the reaction between WST and intracellular dehydrogenase, and the absorbance (OD, wavelength 450 nm) was measured. The cell viability was calculated according to the following Equation 1 below, and the results are shown in Table 1 below. [formula]
# (§6) In Equation 1, the 'experimental group' is the group treated with an aqueous solution containing 3HP; the 'control group' is the medium containing only the WST substrate; and the 'negative control group' is the group in which a medium containing WST substrate was treated with an aqueous solution of 0% 3HP.
# [2] = test system: Human follicle dermal papilla cells; experiment: Cell viability (WST / CCK-8 absorbance at 450 nm); assay type: cell-based; conditions: for Human follicle dermal papilla cell viability (%): 24 hours, single runs (Once / Two times / Three times), 1440 min
# Description: as §3, §4, §5, §6
# Srd5α1 = experiment: 5α-reductase gene expression by real-time PCR (relative quantification vs GAPDH); assay type: cell-based, Human; conditions: for mrna remaining at 0.0125 %: 3HP 0.0125 %; for mrna remaining at 0.025 %: 3HP 0.025 %
# Description: as §3
# (§7) The cultured human follicle dermal papilla cells were divided into 5x10^4 cells in a 96-well plate, and when the cells reached 80% or more confluency, they were treated with the 3-hydroxypropionic acid aqueous solution according to Preparation Example 1 at four concentrations (3HP concentrations: 0 wt.%, 0.0125 wt.%, 0.025 wt.%, and 0.05 wt.%), and then cultured for 24 hours. Then, the total RNA in the cells was extracted, and cDNA was synthesized from the extracted RNA. The synthesized cDNA was subjected to real-time polymerase chain reaction. And, the relative quantitative analysis of each gene was performed using GAPDH (one of the house-keeping genes). The relative quantification (RQ) value was calculated according to the following Equation 2. RQ = 2−ΔΔCT; ΔΔCT = ΔCT (Treatment)−ΔCT (Control); ΔCT = CT (Targetgene)−CT (House-keepinggene) [formula]
# (§8) In the Equation 2, 'Treatment' is the group treated with 3HP; 'Control' is the group not treated with 3HP; 'Target gene' is Srd5α1 and TGF-β1, and 'House-keeping gene' is GAPDH.
# TGF-β1 = TGF-β1 gene expression by real-time PCR (relative quantification vs GAPDH); assay type: cell-based, Human; conditions: for mrna remaining at 0.0125 %: 3HP 0.0125 %; for mrna remaining at 0.025 %: 3HP 0.025 %
# Description: as §3, §7, §8
# [3] = Homo sapiens, 24 h, 24 hours, human follicle dermal papilla cells, Average, read-out: 5α-reductase gene expression level (RQ)
# [4] = Homo sapiens, 24 h, 24 hours, human follicle dermal papilla cells, single runs (Once / Two times / Three times), read-out: 5α-reductase gene expression level (RQ)
# [5] = Homo sapiens, 24 h, 24 hours, human follicle dermal papilla cells, Average, read-out: TGF-β1 gene expression level (RQ)
# [6] = Homo sapiens, 24 h, 24 hours, human follicle dermal papilla cells, single runs (Once / Two times / Three times), read-out: TGF-β1 gene expression level (RQ)
smiles,measurement,setting,value
"O=C(O)CCCC[C@@H]1SC[C@@H]2NC(=O)N[C@@H]21 [Biotin, reference compound]",Telogen ratio (%),human hair follicles; DHT + 2 ng/ml Biotin,10.000%
same,Ki67 positive cells (%),hair follicle cells; 2 ng/ml Biotin,44.631%
"C[C@]12CCC(=O)C[C@@H]1CC[C@@H]1[C@@H]2CC[C@]2(C)[C@@H](O)CC[C@@H]12 [DHT, dihydrotestosterone, reference compound]",Telogen ratio (%),human hair follicles; 1 µM DHT alone (DHT control group),40.000%
"O=C(O)CCO [Example 3HP, 3-hydroxypropionic acid]",viability at 24 h,"[1]; 3HP 0.0125 %, Average",92.6%
same,viability at 24 h,"[1]; 3HP 0.0125 %, single runs (Once / Two times / Three times)",90.8%
same,viability at 24 h,"[1]; 3HP 0.025 %, Average",86.7%
same,viability at 24 h,"[1]; 3HP 0.025 %, single runs (Once / Two times / Three times)",86.6%
same,viability at 24 h,"[1]; 3HP 0.05 %, Average",85.8%
same,viability at 24 h,"[1]; 3HP 0.05 %, single runs (Once / Two times / Three times)",86.5%
same,viability at 24 h,"[1]; 3HP 0.1%, Average",75.3%
same,viability at 24 h,"[1]; 3HP 0.1%, single runs (Once / Two times / Three times)",77.5%
same,Human follicle dermal papilla cell viability (%),[2]; 3HP 0.0125 %,92.037% and 95.062%
same,Human follicle dermal papilla cell viability (%),[2]; 3HP 0.025 %,84.153% and 89.275%
same,Human follicle dermal papilla cell viability (%),[2]; 3HP 0.05 %,86.027% and 85.031%
same,Human follicle dermal papilla cell viability (%),[2]; 3HP 0.1%,72.756% and 75.694%
same,cell viability,"[2]; under the treatment concentrations of Table 2, result in words",high
same,mrna remaining at 0.0125 %,Srd5α1; [3],86.6%
same,mrna remaining at 0.0125 %,Srd5α1; [4],85.6%
same,mrna remaining at 0.025 %,Srd5α1; [3],88.8%
same,mrna remaining at 0.025 %,Srd5α1; [4],87.1%
same,mrna remaining at 0.05 %,"Srd5α1; Homo sapiens, 24 h, 3HP 0.05 %, 24 hours, human follicle dermal papilla cells, Average, read-out: 5α-reductase gene expression level (RQ)",127%
same,expression of the 5α-reductase gene,"Srd5α1; under the treatment concentration of Table 3, result in words",significantly inhibited
same,mrna remaining at 0.0125 %,TGF-β1; [5],80.2%
same,mrna remaining at 0.0125 %,TGF-β1; [6],75.6%
same,mrna remaining at 0.025 %,TGF-β1; [5],69.4%
same,mrna remaining at 0.025 %,TGF-β1; [6],70.4%
same,mrna remaining at 0.05 %,"TGF-β1; Homo sapiens, 24 h, 3HP 0.05 %, 24 hours, human follicle dermal papilla cells, Average, read-out: TGF-β1 gene expression level (RQ)",130%
same,expression of the TGF-β1 gene,"TGF-β1; under the treatment concentration of Table 4, result in words",significantly inhibited
same,hair follicle telogen ratio,"human hair follicles; 0.1%, 0.5%, and 1.0% 3HP compared to the DHT control group, result in words",significantly decreased
same,Telogen ratio (%),human hair follicles; DHT + 0.1% 3HP,6.250%
same,Telogen ratio (%),human hair follicles; DHT + 0.5% 3HP,0.000%
same,Telogen ratio (%),human hair follicles; DHT + 1.0% 3HP,0.000%
same,proliferation effect of hair follicle cells,"hair follicle cells; 0.1% 3HP compared to the negative control group, Ki67 immunofluorescence staining, result in words",significantly increased
same,Ki67 positive cells (%),hair follicle cells; 0.1% 3HP,48.745%
"CC(C)(C)NC(=O)[C@H]1CC[C@H]2[C@@H]3CC[C@H]4NC(=O)C=C[C@]4(C)[C@H]3CC[C@]12C [Finasteride, reference compound]",Telogen ratio (%),human hair follicles; DHT + 0.5 mM Finasteride,0.000%
"Nc1cc(N2CCCCC2)nc(N)[n+]1[O-] [Minoxidil, reference compound]",Ki67 positive cells (%),hair follicle cells; 0.1 mM Minoxidil,47.187%
